Measurements published in patent publication US20260158157A1, “COMBINATION OF ANTI-HER3 ANTIBODY-DRUG CONJUGATE AND RASG12C INHIBITOR” (DAIICHI SANKYO COMPANY, LIMITED, priority 2023, published 2026).

Key:
topoisomerase I = biological target: T1, topoisomerase I (Homo sapiens, UniProt P11387); details: reference: Ogitani Y. et al., Clinical Cancer Research 2016; cited from earlier work
T1 sequence (P11387 1-765): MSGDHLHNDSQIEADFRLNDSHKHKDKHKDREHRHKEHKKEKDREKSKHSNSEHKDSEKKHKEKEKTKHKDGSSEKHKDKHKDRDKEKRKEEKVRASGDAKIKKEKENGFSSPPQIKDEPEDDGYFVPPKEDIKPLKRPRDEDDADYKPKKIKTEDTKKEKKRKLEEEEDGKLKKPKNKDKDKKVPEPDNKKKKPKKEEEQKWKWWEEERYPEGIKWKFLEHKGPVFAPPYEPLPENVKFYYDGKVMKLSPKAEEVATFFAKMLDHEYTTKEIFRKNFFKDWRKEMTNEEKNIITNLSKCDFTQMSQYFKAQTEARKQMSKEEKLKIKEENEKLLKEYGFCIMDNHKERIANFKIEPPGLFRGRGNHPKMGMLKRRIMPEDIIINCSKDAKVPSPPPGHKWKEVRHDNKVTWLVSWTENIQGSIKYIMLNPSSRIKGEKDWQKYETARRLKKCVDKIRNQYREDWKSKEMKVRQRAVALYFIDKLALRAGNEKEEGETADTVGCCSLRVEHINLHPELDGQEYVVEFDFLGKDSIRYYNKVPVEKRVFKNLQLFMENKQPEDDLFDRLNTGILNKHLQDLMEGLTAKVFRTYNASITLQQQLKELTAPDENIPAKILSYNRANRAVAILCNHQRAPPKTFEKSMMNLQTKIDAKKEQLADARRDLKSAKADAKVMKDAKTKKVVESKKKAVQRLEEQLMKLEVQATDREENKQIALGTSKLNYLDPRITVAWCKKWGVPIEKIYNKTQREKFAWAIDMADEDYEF

NCI-H358 cells = assay: Antitumor test (1): NCI-H358 cells subcutaneously transplanted into nude mice; details: for notable findings such as weight reduction: NCI-H358 xenograft nude mice, HER3-ADC (1) 3 mg/kg iv and/or RASG12C inhibitor 10 mg/kg orally, 3 weeks
Experimental: Mouse: Female BALB/c nude mice of 5 to 6 week-old (Charles River Laboratories Japan, Inc.) were used in an experiment.
Measurement and calculation formula: In all studies, the long diameter and the short diameter of a tumor were measured with an electronic digital caliper (CD-15CX, Mitutoyo Corporation) twice a week to calculate the tumor volume (mm^3). The calculation formula was as follows: […]
HER3-ADC (1) was diluted with ABS buffer (10 mM acetate buffer (pH 5.5), 5% sorbitol), and the resultant liquid was administered in an amount of 10 mL/kg to the tail vein.
Sotorasib was dissolved in 2% hydroxypropyl methylcellulose and 1% Tween 80, and the resultant liquid was orally administered in an amount of 10 mL/kg. […] NCI-H358 cells, that is, human lung cancer line purchased from ATCC (American Type Culture Collection) were suspended in 50% Matrigel matrix (Invitrogen), and 3×10^6 cells thus obtained were subcutaneously transplanted into a right side portion of the body of each of the female nude mice, and the resultant mice were randomly grouped 13 days after the transplantation (Day 0). HER3-ADC (1) was administered to the tail vein at a dose of 3 mg/kg on Day 0, Day 7, and Day 14. The RASG12C inhibitors were administered at a dose of 10 mg/kg for 3 weeks once a day and five times a week. Groups each given one of these agents, a group given both, and a solvent administration group as a control group were established.

Row | Compound | topoisomerase I inhibitory effect (topoisomerase I) | notable findings such as weight reduction (NCI-H358 cells) | tumor growth inhibition (TGI), single administration of RASG12C inhibitor (NCI-H358 cells; NCI-H358 xenograft, female nude mice, 10 mg/kg orally once a day, five times a week for 3 weeks, final day of the test) | tumor growth inhibition (TGI), single administration of HER3-ADC (1) (NCI-H358 cells; NCI-H358 xenograft, female nude mice, 3 mg/kg tail vein on Day 0, Day 7 and Day 14, final day of the test)
1 | CC[C@@]1(O)C(=O)OCc2c1cc1n(c2=O)Cc2c-1nc1cc(F)c(C)c3c1c2[C@@H](NC(=O)CO)CC3 | confirmed to have topoisomerase I inhibitory effect | – | – | –
2 | C=CC(=O)N1CCN(c2nc(=O)n(-c3c(C)ccnc3C(C)C)c3nc(-c4c(O)cccc4F)c(F)cc23)[C@@H](C)C1 [sotorasib] | – | anal prolapse | 39% | –
3 | HER3-ADC (1): anti-HER3 antibody (heavy chain SEQ ID NO: 1, light chain SEQ ID NO: 2) conjugated to exatecan-derivative drug-linker via thioether bond; average drug-to-antibody ratio 7.6 | – | No notable findings such as weight reduction | – | 68%
